Source: PMC10145285, “Diverse Biological Activity of Benzofuroxan/Sterically Hindered Phenols Hybrids” (Pharmaceuticals, 2023)
Values after ≈ are worked out from the molar mass of the structure shown. Where two headings read alike, the source gives them in different places.

Experiments:
MCF-7 = assay: cells; format: cell-based, human; conditions: Homo sapiens, read-out: IC50, MCF-7
HuTu 80 = assay: cells; conditions: Homo sapiens, HuTu80, 48 h, read-out: IC50, HuTu 80
M-HeLa = assay: cells; conditions: Homo sapiens, 48 h, read-out: IC50, M-HeLa
Chang Liver = assay: cells; conditions: Homo sapiens, 48 h, read-out: IC50, Chang Liver
[1] = system: Staphylococcus aureus ATCC 6538P FDA 209P (Sa); assay: Antimicrobial serial microdilution, Sa; format: cell-based
[2] = system: Bacillus cereus ATCC 10702 (Bc); assay: Antimicrobial serial microdilution, Bc; format: cell-based
[3] = system: Enterococcus faecalis ATCC 29212 (Ef); assay: Antimicrobial serial microdilution, Ef; format: cell-based
MRSA-1 = assay: Antimicrobial serial microdilution, MRSA-1; format: cell-based, Staphylococcus aureus
MRSA-2 = assay: Antimicrobial serial microdilution, MRSA-2; format: cell-based, Staphylococcus aureus
T98G = assay: cells; format: cell-based; conditions: Homo sapiens, 48 h, read-out: IC50, T98G
A375 = assay: cells; format: cell-based; conditions: Homo sapiens, read-out: IC50, A375
WI38 = assay: cells; format: cell-based; conditions: Homo sapiens, read-out: IC50, WI38
PANC-1 = assay: cells; conditions: Homo sapiens, PANC-1, 48 h, read-out: IC50, PANC-1
A549 = assay: cells; conditions: Homo sapiens, A549, 48 h, read-out: IC50, A549
PC3 = assay: cells; format: cell-based; conditions: Homo sapiens, PC-3, 48 h, read-out: IC50, PC3

Row | Compound | IC50 (MCF-7; MCF7, 48 h) [µM] | IC50 (HuTu 80) [µM] | IC50 (M-HeLa) [µM] | IC50 (Chang Liver) [µM] | IC50 (T98G) [µM] | IC50 (PANC-1) [µM] | IC50 (A549) [µM] | other results
1 | CCOP(=O)(OCC)C(c1cc(C(C)(C)C)c(O)c(C(C)(C)C)c1)c1ccc(N)nc1N (stereo not shown) [2b] | 34.2 ± 3 | 86.6 ± 6.8 | 17.1 ± 1.3 | > 100 |  |  |  | 
2 | CC(C)OP(=O)(OC(C)C)C(c1cc(C(C)(C)C)c(O)c(C(C)(C)C)c1)c1ccc(N)nc1N (stereo not shown) [2c] | 21.8 ± 1.7 | > 100 | 38 ± 2.8 | > 100 |  |  |  | Minimum Inhibitory Concentration (MIC), Sa [1]: -; Minimum Inhibitory Concentration (MIC), Bc [2]: -; Minimum Inhibitory Concentration (MIC), Ef [3]: -; Minimum Inhibitory Concentration (MIC), MRSA-1 (MRSA-1; serial microdilution, strain resistant to β-lactams and fluoroquinolones): -; Minimum Inhibitory Concentration (MIC), MRSA-2 (MRSA-2; serial microdilution, strain resistant only to β-lactams): -
3 | COc1cccc2c1C(=O)c1c(O)c3c(c(O)c1C2=O)C[C@@](O)(C(=O)CO)C[C@@H]3O[C@H]1C[C@H](N)[C@H](O)[C@H](C)O1 [DOX, doxorubicin, reference compound] |  | 0.2 ± 0.01 | 2.1 ± 0.2 | 0.5 ± 0.04 | 2 ± 0.1 | 2.2 ± 0.1 | 0.7 ± 0.05 | IC50 (MCF-7; MCF7, cancer cell line, 48 h incubation, MTT): 0.4 ± 0.03 µM; IC50 (A375; A-375, cancer cell line, 48 h incubation, MTT): 0.3 ± 0.02 µM; IC50 (WI38; WI-38, normal cell line, 48 h incubation, MTT): 0.4 ± 0.02 µM
4 | CC(C)OP(=O)(OC(C)C)C(c1cc(C(C)(C)C)c(O)c(C(C)(C)C)c1)c1ccc(Nc2c([N+](=O)[O-])cc([N+](=O)[O-])c3no[n+]([O-])c23)nc1Nc1c([N+](=O)[O-])cc([N+](=O)[O-])c2no[n+]([O-])c12 (stereo not shown) [5c, 7,7’-((3-((3,5-di-tert-butyl-4-hydroxyphenyl)(diisopropoxyphosphoryl)methyl)pyridine-2,6-diyl)bis(azanediyl))bis(4,6-dinitrobenzo[c][1,2,5]oxadiazole 1-oxide)] | 4.5 ± 0.4 | 3.9 ± 0.3 | 2.4 ± 0.2 | 4.1 ± 0.8 | 7.7 ± 0.6 | 5 ± 0.3 | 7.7 ± 0.6 | IC50 (PC3): 6.8 ± 0.5 µM; IC50 (A375; A-375, 48 h): 9 ± 0.8 µM; IC50 (WI38; WI-38, 48 h): 5 ± 0.4 µM; Minimum bactericidal and fungicidal concentrations (MBC), (MFC), Sa [1]: -; MIC ([1]; Staphylococcus aureus, read-out: Minimum Inhibitory Concentration (MIC), Sa): 31.3 ± 2.3 µg/mL (≈ 33.3 µM); MIC ([2]; Bacillus cereus, ATCC10702, read-out: Minimum Inhibitory Concentration (MIC), Bc): 31.3 ± 2.5 µg/mL (≈ 33.3 µM); MBC ([2]; Bacillus cereus, ATCC10702, read-out: Minimum bactericidal and fungicidal concentrations (MBC), (MFC), Bc): 250 ± 20 µg/mL (≈ 266 µM); Minimum bactericidal and fungicidal concentrations (MBC), (MFC), Ef [3]: -; MIC ([3]; Enterococcus faecalis, ATCC29212, read-out: Minimum Inhibitory Concentration (MIC), Ef): 62.5 ± 5.3 µg/mL (≈ 66.5 µM); Minimum bactericidal and fungicidal concentrations (MBC), (MFC), MRSA-1 (MRSA-1): -; MIC (MRSA-1; Staphylococcus aureus, MRSA, read-out: Minimum Inhibitory Concentration (MIC), MRSA-1): 62.5 ± 5.5 µg/mL (≈ 66.5 µM); Minimum bactericidal and fungicidal concentrations (MBC), (MFC), MRSA-2 (MRSA-2): -; MIC (MRSA-2; Staphylococcus aureus, MRSA, read-out: Minimum Inhibitory Concentration (MIC), MRSA-2): 250 ± 20 µg/mL (≈ 266 µM)
5 | COP(=O)(OC)C(c1cc(C(C)(C)C)c(O)c(C(C)(C)C)c1)c1ccc(Nc2c([N+](=O)[O-])cc([N+](=O)[O-])c3no[n+]([O-])c23)cc1N (stereo not shown) [4e, 7-((3-amino-4-((3,5-di-tert-butyl-4-hydroxyphenyl)(dimethoxyphosphoryl)methyl)phenyl)amino)-4,6-dinitrobenzo[c][1,2,5]oxadiazole 1-oxide] | 21.5 ± 1.8 | 17.1 ± 1.3 | 12 ± 1 | 14.3 ± 1.3 | 40.2 ± 3.1 | 17.4 ± 1.3 | 48.3 ± 3.7 | IC50 (PC3): 12.3 ± 1.1 µM; IC50 (A375; A-375, 48 h): 53.1 ± 4.1 µM; IC50 (WI38; WI-38, 48 h): 25.7 ± 2.2 µM
6 | CC(C)(C)c1cc(C(c2ccc(N)nc2N)P(=O)(Oc2ccccc2)Oc2ccccc2)cc(C(C)(C)C)c1O (stereo not shown) [2d] | 16 ± 1.2 | 63.2 ± 5.6 | 7.4 ± 0.7 | 52 ± 3.5 |  |  |  | Minimum Inhibitory Concentration (MIC), Sa [1]: -; Minimum Inhibitory Concentration (MIC), Bc [2]: -; Minimum Inhibitory Concentration (MIC), Ef [3]: -; Minimum Inhibitory Concentration (MIC), MRSA-1 (MRSA-1): -; Minimum Inhibitory Concentration (MIC), MRSA-2 (MRSA-2): -
7 | COP(=O)(OC)C(c1cc(C(C)(C)C)c(O)c(C(C)(C)C)c1)c1ccc(N)cc1N (stereo not shown) [2e] | > 100 |  | 45.3 ± 3.2 | > 100 |  |  |  | 
